Data taken from patent publication US20090131520A1, “Lipid metabolism Improving Composition” (priority 2005, published 2009).

Columns and labels:
apolipoprotein B (B100) = assay: Secretion of apolipoprotein B (B100) from HepG2 cells into the test medium, ELISA; type: cell-based, human; conditions: 150 μM, 24 hr culture, FIG. 1
Experimental: (§1) A test medium containing 150 μM of linolic acid menthol ester (1% BSA-DMEM) was provided. In this test medium, human liver-derived HepG2 cells were cultured for 24 hr, and the cells and the medium were collected.
(§2) Evaluation 2: Test on Secretion (Inhibition/Enhancement) of Apolipoproteins A and B
(§3) The amount of apolipoprotein A (A1) and apolipoprotein B (B100) secreted from the human liver-derived HepG2 cells into the test medium was measured by the ELISA method.

apolipoprotein A (A1) = assay: Secretion of apolipoprotein A (A1) from HepG2 cells into the test medium, ELISA; type: cell-based, human; conditions: 150 μM, 24 hr culture, FIG. 2
Experimental: as §1, §2, §3

CCCCC/C=C\C/C=C\CCCCCCCC(=O)OC1CC(C)CCC1C(C)C (centres unmarked) [linolic acid menthol ester]
amount of apolipoprotein B (B100) secreted (apolipoprotein B (B100)): inhibit the secretion of apolipoprotein B (B100) | amount of apolipoprotein A (A1) secreted (apolipoprotein A (A1)): significantly enhance the secretion of apolipoprotein A (A1)
